Consider six compounds from patent US5444042A, “Method of treatment of neurodegeneration with calpain inhibitors” (Cortex Pharmaceuticals, priority 1994, dated 1995).

The target in data set [1] is T1, Papain (Carica papaya, UniProt P00784).
T1 sequence (P00784 134-345): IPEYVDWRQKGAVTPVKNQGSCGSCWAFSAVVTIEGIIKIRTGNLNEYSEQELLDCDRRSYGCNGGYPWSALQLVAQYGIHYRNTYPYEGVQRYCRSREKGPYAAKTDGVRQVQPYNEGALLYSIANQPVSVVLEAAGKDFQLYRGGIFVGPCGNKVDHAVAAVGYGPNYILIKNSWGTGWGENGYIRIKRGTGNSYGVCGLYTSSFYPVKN
Briefly: Papain inhibition, Ki by Dixon plot (Table PKC1). The class given is biochemical. The conditions noted are these: 5 mM cysteine, 25° C. As to the method:
(§1) Various concentrations of inhibitors in dimethylsulfoxide (DMSO) were added to the assay mixture, which contained buffer and substrate. The reaction was started by the addition of the enzyme and the hydrolysis rates were followed spectrophotometrically or fluorimetrically. 88 mM KH2 PO4, 12 mM Na2 HPO4, 1.33 mM EDTA, 2.7 mM cysteine, pH 6.0 was used as a buffer for cathepsin B; and 20 mM Hepes, 10 mM CaCl2, 10 mM β-mercaptoethanol, pH 7.2 buffer was utilized for calpain I and calpain II.
(§2) All peptide thioester hydrolysis rates were measured with assay mixtures containing 4,4'-dithiodipyridine [e324=19800 M-1 cm-1; Grasetti & Murray, Arch. Biochem. Biophys. 119, pp 41-49 (1967)]. Papain was assayed with Bz-Arg-AMC or Bz-Arg-NA [Kanaoka et al., Chem. Pharm. Bull. 25, 3126-3128 (1977)], and the AMC (7-amino-4-methylcoumarin) release was followed fluorimetrically (excitation at 380 nm, and emission at 460 nm). Cathepsin B was assayed with Z-Arg-Arg-AFC [Barrett and Kirschke, Methods Enzymol. 80, 535-561 (1981)], and the AFC (7-amino-4-trifluoromethylcoumarin) release was followed fluorimetrically (excitation at 400 nm, and emission at 505 nm). Calpain I from human erythrocytes and calpain II from rabbit were assayed using Suc-Leu-Tyr-AMC [Sasaki et al., J. Biol. Chem. 259, 12489-12494 (1984), hereby incorporated by reference], and the AMC (7-amino-4-methylcoumarin) release was followed fluorimetrically (excitation at 380 nm, and emission at 460 nm). Enzymatic hydrolysis rates were measured at various substrate and inhibitor concentrations, and Ki values were determined by Dixon plot.
The inhibition constants for papain shown in Table PKC1 were measured in 0.05M Tris-HCl, pH 7.5 buffer, containing 2 mM EDTA, 5 mM cysteine (freshly prepared), 1% DMSO, at 25° C., using N^α -Benzoyl-Arg-AMC as a substrate, except that those values of inhibition constants for papain marked with an "e" in Table PKC1 were measured in 50 mM Tris-HCl, pH 7.5 buffer, containing 20 mM EDTA, 5 mM cysteine, 9% DMSO, at 25° C., using N^α -Benzoyl-Arg-NA as a substrate.

Data set [2] deals with T2, Cathepsin B (Bos taurus, UniProt P07688). The experiment in a line: Cathepsin B inhibition, Z-Arg-Arg-AFC (Table PKC1). In kind it is biochemical. The conditions noted are these: pH 6.0 phosphate buffer, substrate Z-Arg-Arg-AFC; read-out: Ki CB (Cathepsin B). The protocol:
as §1, §2

Data set [3] has as its system Calpain in crude brain extracts. The experiment in a line: Ca2+-stimulated spectrin proteolysis in crude brain extracts (Example 2). The class given is biochemical. The conditions noted are these: 100 μM. The protocol: The activity of Calpain in crude brain extracts was measured by examining the Ca^2+ -stimulated proteolysis of the endogenous substrate spectrin. Brain tissue was homogenized in 10 mM Tris pH=7.4, 0.32M sucrose, 1 mM EGTA, 1 mM dithiothreitol and the nuclei and debris removed by low speed centrifugation. […] Proteolysis of spectrin was evaluated by western blot as described by Seubert, et at. (Brain Research, 459:226-232, 1988), the disclosure of which is hereby incorporated by reference. Briefly, a known quantity of a spectrin-containing sample treated with Calpain is separated by SDS-PAGE and immunoblotted with anti-spectrin antibody. The amount of spectrin immunoreactivity found corresponding to the characteristic BDP's is indicative of the amount of […] activity present in the sample. An examplary method for quantitating BDP's is to assay Spectrin BDP's by homogenizing brain parts in 20 mM Tris pH=7.2, 0.32M sucrose, 50 μM Ac-Leu-Leu-nLeu-H on ice. Homogenates are then mixed 1:1 with 10% SDS, 5% β-mercaptoethanol, 10% glycerol, 10 mM Tris pH=8.0, 0.5% bromophenolblue, heated to 95° C., and subjected to electrophoresis in 41/2% polyacrylamide gels. The proteins in the gels are transferred to nitrocellulose and the spectrin and BDP's detected using a rabbit polyclonal anti-spectrin antibody and established immunodetection methods. The amount of spectrin and BDP's in each sample can be quantitated by densitrometric scanning of the developed nitrocellulose.

The test system of data set [4] is Calpain within platelets. The experiment in a line: Platelet membrane permeation assay, spectrin proteolysis (Examples 4A, 4B). In kind it is cell-based, rat. Particulars: for effect on intracellular (platelet) Calpain: concentration not given; for inhibition of Calpain within platelets / platelet assay, semi-quantitative: 100 μM; for inhibition of Calpain within platelets: A23187 1 μM. The protocol:
Platelets were isolated by a modification of the method of Ferrell and Martin, J Biol. Chem., 264:20723-20729 (1989), the disclosure of which is hereby incorporated by reference. Blood (15-20 ml) was drawn from male Sprague-Dawley rats into 100 mM EDTA-citrate containing 10 units heparin, and centrifuged 30 minutes at 1600 rpm at room temperature. The plasma was resuspended in 15 ml buffer 1 (136 mM NaCl, 2.7 mM KCl, 0.42 mM NaH2 PO4, 12 mM NaHCO3, 2 mM MgCl2, 2 mg/ml BSA (Sigma), 5.6 mM glucose, 22 mM Na3 Citrate pH 6.5) and platelets were isolated at 2200 rpm at room temperature of 25 minutes. Platelets were resuspended to 10^7 cells/ml in buffer 2 (136 mM NaCl, 2.7 mM KCl, 0.42 NaH2 PO4, 12 mM NaHCO3, 2 mM MgCl, 1 mg/ml BSA, 5.6 mM glucose, 20 mM HEPES pH 7.4) and allowed to "rest" for a minimum of 10 minutes at room temperature before use.
Platelets were incubated for 5 minutes in the presence of inhibitor. In order to provide sufficient intracellular calcium to activate Calpain, the calcium ionophore A23187 was added to a final concentration of 1 μM. After a further 5 minute incubation, the platelets were harvested by centrifugation (1 min 10,000×g) and resuspended in 10% sodium dodecyl sulfate, 10 mM Tris pH=8.0, 5% β-mercaptoethanol, 0.02% bromophenol blue, and heated to 95° C. for 5 min. Samples were subjected to SDS-PAGE on 6% mini gels and transferred to nitrocellulose (Schleicher and Schuell BAS3) for 2 hours at 100 mA/gel in an LKB Novablot. Filters were blocked for 10 minutes in 0.25% gelatin, 1% BSA, 0.25% Triton X100, 0.9% NaCl, 10 mM Tris-Cl pH 7.5, incubated overnight in the same solution containing antibody to rat spectrin, washed 3×10 minutes with 10 mM Tris-Cl pH 7.5, 0.5 % Triton X100, incubated 4 hours in wash buffer plus alkaline phosphatase conjugated goat anti-rabbit antibody (Biorad), and washed as above. Filters were developed using the Biorad AP conjugate substrate kit. Spectrin immunoreactivity on the filters was quantitated by densitometry.

Data set [5] addresses PP Elastase (Sus scrofa, UniProt P00772). The experiment in a line: PP Elastase KI (Table 1B(ii)). The class given is biochemical. The text has this: (§3) We tested the ability of an additional group of Peptide Keto-Compounds to inhibit several proteases in order to evaluate their specificity for Calpain.
For data set [6], the target named is Chym (Bos taurus, UniProt P00766). Briefly: Chym KI (Table 1B(ii)). The class given is biochemical.
From the text: as §3

Data set [7] concerns the target T1, Papain. The experiment in a line: Papain KI (Table 1B(ii)). In kind it is biochemical.
From the text: as §3

For data set [8], the target named is T2, Cathepsin B. Briefly: Cathepsin B KI (Table 1B(ii)). The class given is biochemical. Particulars: read-out: KI CathB.
From the text: as §3

In data set [9] the target is Calpain II. Briefly: Calpain II KI (Table 1B(ii)). In kind it is biochemical.
From the text: as §3

The target in data set [10] is T3, Calpain I (Homo sapiens, UniProt P07384).
T3 sequence (P07384 1-714): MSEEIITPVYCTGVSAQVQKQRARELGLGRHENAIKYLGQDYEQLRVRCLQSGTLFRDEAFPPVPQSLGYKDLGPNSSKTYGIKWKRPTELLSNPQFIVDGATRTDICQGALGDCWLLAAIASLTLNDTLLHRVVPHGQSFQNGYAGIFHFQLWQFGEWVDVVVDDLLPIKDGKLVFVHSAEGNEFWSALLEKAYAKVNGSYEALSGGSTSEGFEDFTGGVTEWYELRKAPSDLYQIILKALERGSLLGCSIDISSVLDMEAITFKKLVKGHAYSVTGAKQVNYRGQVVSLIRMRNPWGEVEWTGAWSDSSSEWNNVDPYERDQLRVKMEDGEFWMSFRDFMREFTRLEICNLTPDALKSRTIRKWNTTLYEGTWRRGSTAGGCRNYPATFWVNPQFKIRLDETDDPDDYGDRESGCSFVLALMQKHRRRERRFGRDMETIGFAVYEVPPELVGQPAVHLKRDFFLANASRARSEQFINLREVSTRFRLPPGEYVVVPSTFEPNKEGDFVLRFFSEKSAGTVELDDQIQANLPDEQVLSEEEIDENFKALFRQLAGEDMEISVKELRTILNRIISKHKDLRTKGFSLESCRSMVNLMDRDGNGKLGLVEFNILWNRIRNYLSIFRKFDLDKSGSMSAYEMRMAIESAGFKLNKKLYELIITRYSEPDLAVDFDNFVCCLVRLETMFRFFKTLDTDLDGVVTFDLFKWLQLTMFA
T3 sequence (P04632 1-268 partner): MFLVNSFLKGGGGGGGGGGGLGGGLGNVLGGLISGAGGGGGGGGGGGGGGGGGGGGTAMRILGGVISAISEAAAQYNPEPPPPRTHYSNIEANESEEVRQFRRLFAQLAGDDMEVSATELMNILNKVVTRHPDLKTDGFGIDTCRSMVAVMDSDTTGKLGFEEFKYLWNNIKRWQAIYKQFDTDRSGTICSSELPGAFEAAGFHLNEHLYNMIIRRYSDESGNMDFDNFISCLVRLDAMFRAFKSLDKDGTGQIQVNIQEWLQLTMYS
The experiment in a line: Calpain I KI (Table 1B(ii)). The class given is biochemical. Particulars: Table 1B(ii).
From the text: as §3

Data set [11] in a line: Stability in plasma. The class given is in vitro ADME. Particulars: unit assumed. The text has this: We determined the haft-life of several Peptide Keto-Compounds in both plasma and liver homogenates.
[12] abbreviates: 50 mM Tris-HCl pH 7.5, 20 mM EDTA, 9% DMSO, substrate Nα-Benzoyl-Arg-NA, read-out: Ki P (Papain), values marked e.

Sequence of PP Elastase (P00772 27-266): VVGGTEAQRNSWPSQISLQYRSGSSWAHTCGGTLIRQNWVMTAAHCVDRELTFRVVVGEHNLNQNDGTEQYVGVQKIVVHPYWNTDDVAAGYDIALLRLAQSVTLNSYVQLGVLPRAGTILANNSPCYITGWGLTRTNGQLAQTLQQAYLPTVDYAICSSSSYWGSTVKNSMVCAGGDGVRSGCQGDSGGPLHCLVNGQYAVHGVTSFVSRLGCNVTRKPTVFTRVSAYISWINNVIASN

What is called Ki is the dissociation constant of the complex between target and ligand, obtained from inhibition or displacement. Consider `CCOC(=O)C(=O)C(Cc1ccccc1)NC(=O)c1ccccc1` (racemic) [Bz-DL-Phe-COOEt, Bz-DL-Phe-CO2 Et], for which the results for the Ki in data set [1] (setting [12]) and in data set [2] were 500 µM and 64 µM, respectively. The “inhibition of spectrin proteolysis in crude brain extracts” value in data set [3] is “significant inhibition”. In data set [4], the “effect on intracellular (platelet) Calpain” value was “failed to exhibit Calpain inhibitory activity”.
Regarding `COC(=O)CCC(=O)NC(C(=O)N1CCCC1C(=O)NC(Cc1ccccc1)C(=O)C(=O)OC)C(C)C` (racemic) [MeO-Suc-Val-Pro-DL-Phe-COOMe, MeO-Suc-Val-Pro-DL-Phe-CO2 Me], the inhibition constant (Ki) in [1] (0.05M Tris-HCl pH 7.5, 2 mM EDTA, 1% DMSO, substrate Nα-Benzoyl-Arg-AMC, read-out: Ki P (Papain)) was 1.1 µM; in [1] (setting [12]), 2.9 µM; in data set [2], 0.1 µM. Moreover, in data set [3], the “inhibition of spectrin proteolysis in crude brain extracts” value was “significant inhibition”. Besides, in data set [4], the “effect on intracellular (platelet) Calpain” value is “failed to exhibit Calpain inhibitory activity”.
On to `CCOC(=O)C(=O)C(Cc1ccc(Cl)cc1)NC(=O)C(CC(C)C)NC(=O)OCc1ccccc1` (stereo not shown) [Z-Leu-4-Cl-Phe-COOEt], for which the Ki in data set [5] was > 100 µM; in data set [6], 0.9 µM; in [7], 150 µM; in data set [8], 50 µM; in data set [9] it was 0.4 µM; in [10], < 4 µM. Also, the “inhibition of Calpain within platelets” value in data set [4] is “significant inhibition”. For the same compound, the “platelet assay, semi-quantitative” value in data set [4] is “+”.
One may read the IC50 as the concentration needed to halve the response being measured. A lower IC50 goes with higher potency. Take `CCCCOC(=O)C(=O)C(CC)NC(=O)C(CC(C)C)NC(=O)OCc1ccccc1` (stereo not drawn) [Z-Leu-Abu-COOnBu, Z-Leu-Abu-CO2 Bu]: the Ki in data set [5] is 25 µM; in [6], > 100 µM; in data set [7], 10 µM; in data set [8], 4 µM. Also, the “inhibition of Calpain within platelets” value in data set [4] is on record as “significant inhibition”. In addition, half-maximal inhibition in [4] (concentration at which 50% of the Calpain activation present in controls occurred) (IC50) was put at 28 µM.
With `CCOC(=O)C(=O)[C@H](Cc1ccccc1)NC(=O)[C@H](CC(C)C)NC(=O)[C@H](CC(C)C)NC(=O)OCc1ccccc1` [Z-Leu-Leu-Phe-COOEt], the inhibition constant Ki in data set [5] is > 100 µM; in [6] it was 0.26 µM; in data set [7], 15 µM; in data set [8], 42 µM; in data set [9], 1.9 µM; in [10], 1.4 µM. In addition, the “inhibition of Calpain within platelets” value in data set [4] is on record as “significant inhibition”. The “platelet assay, semi-quantitative” value in [4] is listed as “++”.
Consider `CC(C)C[C@H](NC(=O)OCc1ccccc1)C(=O)N[C@@H](Cc1ccccc1)C(=O)C(=O)OCc1ccccc1` [Z-Leu-Phe-COOBz, Z-Leu-Phe-CO2 Bzl], for which the Ki in [5] is > 100 µM; in data set [6], 1.6 µM; in [7] it was 45 µM; in [8], 45 µM; in [9], 1.6 µM; in data set [10], 3.4 µM. Besides, the t1/2 plasma in data set [11] amounted to 1.9 min. For the same compound, in data set [4], the “inhibition of Calpain within platelets” value was “significant inhibition”. In [4], the “platelet assay, semi-quantitative” value was “++”.
